In patent publication US12534748B2, “Engineered beta-subunit of tryptophan synthase for production of non-canonical amino acids” (California Institute of Technology, priority 2015, dated 2026):

Biological target: T1, PfTrpB^2B9 (Pyrococcus furiosus, UniProt Q8U093, E17G/F274S/F95L/I16V/I68V/T292S/T321A/V384A)
T1 construct: made in house; host or cells: E. coli BL21 E. cloni Express
Test: TTN of β-substitution reaction with L-Thr with different nucleophiles
Format: biochemical
Conditions: for TTN: LC-MS
Protocol: Total Turnover Number (TTN) determination. Measurements were made using HPLC and LC-MS instruments. The amount of Trp formed was measured at 280 nm using a standard curve with trichlorobenzene as internal standard. […] This method is insensitive to loading volume and results agreed with measurements using a standard curve. […] This same technique was used to determine the TTN of the PfTrpB^2B9 reaction with different nucleophiles. […] Reactions were set up in triplicate using a total volume of 150 μL with 25 mM nucleophile and 250 mM L-Thr in 200 mM potassium phosphate pH 8.0 in borosilicate glass vials, as plastics can absorb indoles at high temperatures. Before addition of enzyme, all reagents were transferred into a Coy anaerobic chamber with <1 ppm O2 to rapidly exchange the atmosphere in the headspace of the vials to 95/5% N2/H2, which limits competing non-catalytic oxidation of indoles. Enzyme was added in the anaerobic environment with varied catalyst loading to ensure a robust product signal in subsequent analysis. Reaction vessels were capped before being removed from the anaerobic chamber and incubated in a 75° C. water bath for 24 hours. Reactions were quenched the next day by addition of 1 volume (150 μL) of 100% ACN, mixing, and allowing to rest at room temperature for 10 min. Quenched solutions were then diluted 5-fold with 40% ACN in water and analyzed via LC-MS. In all cases, auxiliary peaks that would indicate non-catalytic degradation of substrate were present at only low levels, contributing to <1% of the total integration signal for a given wavelength. For 7-azaindole, a second peak with m/z=220 was observed that was also found in larger scale reactions and whose properties are consistent with an N-alkylated product.
With these reaction conditions in hand, a characterization of the substrate scope of the reaction with Thr was performed. A small panel of indole-like nucleophiles were screened for reaction with PfTrpB^0B2 and Ser, and a significant boosts in activity was observed. This was expanded on this panel of nucleophiles and tests for activity with PfTrpB^2B9 using an excess of Thr was performed. Reactions were run to intermediate yield to determine the TTN with a given nucleophile and the identity of the products was established with a separate preparative-scale reaction using 100 mM nucleophile, 1.0 M Thr, and 0.02-0.25 mol % PfTrpB^2B9 catalyst. […] To probe the role of electronic effects on the C—C bond forming step, activity was tested with 4-fluoro and 5-fluoroindole, which are more closely isosteric with indole but have decreased electron density in the π-system. Product formation with each substrate and 3.4-fold decreased TTN with the 4-fluoro substrate was observed, which is more electron withdrawing at C-3 than the 5-fluoro substituent. The increased steric constraints of the activity site were again clear, as no activity with the 5-chloro-, 5-bromo, and 6-hydroxyindoles, which undergo reaction with Ser, was observed. […] This regioselectivity is well known with the indazole, which we found reacts exclusively to form the N-alkylated product. […] Inclusion of DTT reduced this side reaction.

[1] = 25 mM nucleophile, 250 mM L-Thr, 24 hour reaction at 75° C.

T1 sequence (Q8U093 other isoform, or with tags, fused parts or gaps I16V/E17G/I68V/F95L/F274S/T292S/T321A/V384A): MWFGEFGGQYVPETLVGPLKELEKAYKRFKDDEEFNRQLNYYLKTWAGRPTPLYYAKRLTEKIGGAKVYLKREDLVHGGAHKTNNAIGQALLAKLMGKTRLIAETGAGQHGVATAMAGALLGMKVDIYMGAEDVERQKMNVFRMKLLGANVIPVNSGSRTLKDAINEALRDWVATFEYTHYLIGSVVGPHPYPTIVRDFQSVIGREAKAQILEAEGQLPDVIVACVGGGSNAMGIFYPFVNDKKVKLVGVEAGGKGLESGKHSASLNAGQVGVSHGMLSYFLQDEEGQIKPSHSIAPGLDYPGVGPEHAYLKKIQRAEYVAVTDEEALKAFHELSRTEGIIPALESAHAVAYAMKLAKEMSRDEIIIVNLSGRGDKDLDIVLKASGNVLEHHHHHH

Row | SMILES | reactivity of nucleophile with PfTrpB^2B9 and excess Thr | TTN [1] | other results
1 | c1ccc2c(c1)CCN2 [indoline] | no product formation | – | –
2 | SCc1ccccc1 [benzyl mercaptan] | low turnover | – | –
3 | Cc1cc2ccccc2[nH]1 [2-Methylindole] | Good reactivity | 6400 ± 1400 | –
4 | Fc1cccc2[nH]ccc12 [4-Fluoroindole] | – | 378 ± 8 | decrease of TTN (4-fluoro versus 5-fluoro substrate): 3.4 fold
5 | c1ccc2[nH]ccc2c1 [Indole] | – | 8200 ± 1600 | –
6 | Fc1ccc2[nH]ccc2c1 [5-Fluoroindole] | – | 1300 ± 280 | –
7 | Cc1ccc2cc[nH]c2c1 [6-Methylindole] | Good reactivity | 1100 ± 100 | –
8 | c1ccc2[nH]ncc2c1 [Indazole] | – | 500 ± 40 | –
9 | Sc1ccccc1 [thiophenol] | low turnover | – | –
10 | c1cnc2[nH]ccc2c1 [7-Azaindole] | – | – | TTN, C-alkylation [1]: C-alkylation-220 ± 40; TTN, N-alkylation [1]: N-alkylation-32 ± 3
